Data published in the supplement of paper PMC10307832.

Tests used:
Test in all cases: relative viability (nuclei count vs DMSO), 5 days (fraction); higher = more cells survive
[1] = test system: NCI-H2170
How it was run: (§1)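 Lung cancer cell lines were seeded in 1536-well plates and dosed by pin tool the next day, with either a single drug or a fixed anchor-drug dose combined with five library-drug doses (not always all listed) spaced in √10 steps. Five days later, one step fixed the cells and stained their nuclei (final 0.05% Triton X-100, 1% formaldehyde, 1 ug/ml Hoechst), and nuclei were counted on 4× images. Relative viability is the nuclei count in treated wells divided by the count in vehicle wells, and each value is the median of duplicate plates.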

[2] = test system: NCI-H1944
How it was run: as §1

[3] = test system: HCC-78
How it was run: as §1

[4] = test system: NCI-H2347
How it was run: as §1

[5] = test system: SW 900
How it was run: as §1

[6] = test system: PC-14
How it was run: as §1

[7] = test system: HCC-366
How it was run: as §1

[8] = test system: NCI-H650
How it was run: as §1

[9] = test system: NCI-H2228
How it was run: as §1

[10] = test system: NCI-H727
How it was run: as §1

[11] = test system: RERF-LC-KJ
How it was run: as §1

[12] = test system: NCI-H1650
How it was run: as §1

[13] = test system: NCI-H1915
How it was run: as §1

[14] = test system: BEN
How it was run: as §1

[15] = test system: EMC-BAC-2
How it was run: as §1

[16] = test system: NCI-H2085
How it was run: as §1

[17] = test system: NCI-H2087
How it was run: as §1

[18] = test system: NCI-H1666
How it was run: as §1

[19] = test system: LC-2-ad
How it was run: as §1

[20] = test system: LXF-289
How it was run: as §1

[21] = test system: NCI-H1993
How it was run: as §1

[22] = test system: NCI-H358
How it was run: as §1

Compound: Nc1cccc2c1CN(C1CCC(=O)NC1=O)C2=O (stereo not drawn) [Lenalidomide] + CC(=O)c1c(C)c2cnc(Nc3ccc(N4CCNCC4)cn3)nc2n(C2CCCC2)c1=O [Palbociclib] (partner 0.5 µM)
- relative viability ([1]; first compound 0.253 µM): 0.436
- relative viability ([1]; first compound 0.8 µM): 0.374
- relative viability ([1]; first compound 2.53 µM): 0.433
- relative viability ([1]; first compound 8 µM): 0.314
- relative viability ([2]; first compound 0.253 µM): 0.364
- relative viability ([2]; first compound 2.53 µM): 0.342
- relative viability ([2]; first compound 8 µM): 0.27
- relative viability ([3]; first compound 0.253 µM): 0.48
- relative viability ([3]; first compound 0.8 µM): 0.416
- relative viability ([3]; first compound 2.53 µM): 0.463
- relative viability ([3]; first compound 8 µM): 0.47
- relative viability ([4]; first compound 0.253 µM): 0.492
- relative viability ([4]; first compound 0.8 µM): 0.446
- relative viability ([4]; first compound 2.53 µM): 0.494
- relative viability ([4]; first compound 8 µM): 0.424
- relative viability ([5]; first compound 2.53 µM): 0.52
- relative viability ([5]; first compound 8 µM): 0.454
- relative viability ([6]; first compound 0.253 µM): 0.541
- relative viability ([6]; first compound 0.8 µM): 0.533
- relative viability ([6]; first compound 2.53 µM): 0.6
- relative viability ([6]; first compound 8 µM): 0.685
- relative viability ([7]; first compound 0.253 µM): 0.437
- relative viability ([7]; first compound 0.8 µM): 0.389
- relative viability ([7]; first compound 2.53 µM): 0.505
- relative viability ([7]; first compound 8 µM): 0.353
- relative viability ([8]; first compound 0.253 µM): 0.405
- relative viability ([8]; first compound 0.8 µM): 0.303
- relative viability ([8]; first compound 2.53 µM): 0.326
- relative viability ([8]; first compound 8 µM): 0.355
- relative viability ([9]; first compound 0.253 µM): 1.05
- relative viability ([9]; first compound 0.8 µM): 0.36
- relative viability ([9]; first compound 2.53 µM): 1.04
- relative viability ([9]; first compound 8 µM): 0.657
- relative viability ([10]; first compound 0.253 µM): 0.697
- relative viability ([10]; first compound 0.8 µM): 0.684
- relative viability ([10]; first compound 2.53 µM): 0.64
- relative viability ([10]; first compound 8 µM): 0.631
- relative viability ([11]; first compound 0.253 µM): 1.09
- relative viability ([11]; first compound 0.8 µM): 1.06
- relative viability ([11]; first compound 2.53 µM): 1.21
- relative viability ([11]; first compound 8 µM): 1.03
- relative viability ([12]; first compound 0.253 µM): 0.339
- relative viability ([12]; first compound 0.8 µM): 0.279
- relative viability ([12]; first compound 2.53 µM): 0.343
- relative viability ([12]; first compound 8 µM): 0.453
- relative viability ([13]; first compound 0.253 µM): 0.549
- relative viability ([13]; first compound 0.8 µM): 0.554
- relative viability ([13]; first compound 2.53 µM): 0.578
- relative viability ([13]; first compound 8 µM): 0.486
- relative viability ([14]; first compound 0.253 µM): 0.478
- relative viability ([14]; first compound 0.8 µM): 0.496
- relative viability ([14]; first compound 2.53 µM): 0.418
- relative viability ([14]; first compound 8 µM): 0.556
- relative viability ([15]; first compound 0.253 µM): 0.503
- relative viability ([15]; first compound 0.8 µM): 0.473
- relative viability ([15]; first compound 2.53 µM): 0.52
- relative viability ([15]; first compound 8 µM): 0.448
- relative viability ([16]; first compound 0.253 µM): 0.48
- relative viability ([16]; first compound 0.8 µM): 0.496
- relative viability ([16]; first compound 2.53 µM): 0.432
- relative viability ([16]; first compound 8 µM): 0.464
- relative viability ([17]; first compound 0.253 µM): 0.248
- relative viability ([17]; first compound 2.53 µM): 0.192
- relative viability ([17]; first compound 8 µM): 0.196
- relative viability ([18]; first compound 0.253 µM): 0.647
- relative viability ([18]; first compound 0.8 µM): 0.584
- relative viability ([18]; first compound 2.53 µM): 0.646
- relative viability ([18]; first compound 8 µM): 0.642
- relative viability ([19]; first compound 0.253 µM): 0.549
- relative viability ([19]; first compound 0.8 µM): 0.551
- relative viability ([19]; first compound 2.53 µM): 0.533
- relative viability ([19]; first compound 8 µM): 0.531
- relative viability ([20]; first compound 0.253 µM): 0.616
- relative viability ([20]; first compound 0.8 µM): 0.63
- relative viability ([20]; first compound 2.53 µM): 0.657
- relative viability ([20]; first compound 8 µM): 0.668
- relative viability ([21]; first compound 0.253 µM): 0.789
- relative viability ([21]; first compound 0.8 µM): 0.659
- relative viability ([21]; first compound 2.53 µM): 0.729
- relative viability ([21]; first compound 8 µM): 0.455
- relative viability ([22]; first compound 0.8 µM): 0.139
- relative viability ([22]; first compound 2.53 µM): 0.142
- relative viability ([22]; first compound 8 µM): 0.132
